In patent publication US8518958B2, “Pyrido [2,3-D] pyrimidines and their use as kinase inhibitors” (Forma Therapeutics, Inc., priority 2006, dated 2013) one finds IC50 data, which are given here for 30 compounds.

SMILES strings stand for the structures.

One experiment deals with HT-29 tumor cells. Kind of experiment: Anti-proliferative activity, SRB assay. The settings on record: Homo sapiens, HT-29, 72 h, 72 hours exposure, read-out: CELLULAR IC50 HT-29. It is filed as cell-based, human. Summed up: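 Cells at 3,000-15,000/well, plated 24 h before compound, exposed to a concentration range for 72 hours. Proliferation measured by SRB staining after cold TCA fixation, absorbance at OD570; IC50 estimated from % inhibition versus DMSO-treated cells.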

The next experiment concerns the target B-Raf delta1-415 (Homo sapiens, UniProt P15056). Kind of experiment: B-Raf kinase inhibition (MAPH filter plate, 33P-ATP, MEK1 substrate). The settings on record: read-out: Biochemical IC50 B-Raf. In outline:
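Radiometric filter-binding assay with B-Raf delta1-415 at a level giving 50% turnover, MEK1 substrate and 33P-ATP (12.5 μCi/ml) in 20 mM Mops pH 7.0 with Mg/Mn, 1 h at room temperature. Inhibitor dilution series from 10 μM; EDTA-stopped reactions captured on phosphocellulose filters, counted by scintillation for IC50.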

Sequence of B-Raf delta1-415 (P15056 416-766): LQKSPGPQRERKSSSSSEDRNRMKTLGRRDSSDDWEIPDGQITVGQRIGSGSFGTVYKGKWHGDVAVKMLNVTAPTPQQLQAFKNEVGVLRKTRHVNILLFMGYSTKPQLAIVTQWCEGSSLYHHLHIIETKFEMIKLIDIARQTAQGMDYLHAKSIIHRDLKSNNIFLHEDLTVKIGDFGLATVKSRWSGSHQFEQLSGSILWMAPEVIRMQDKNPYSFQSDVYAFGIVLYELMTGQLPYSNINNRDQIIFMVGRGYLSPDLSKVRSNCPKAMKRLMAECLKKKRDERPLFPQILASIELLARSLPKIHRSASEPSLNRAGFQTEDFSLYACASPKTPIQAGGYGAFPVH

`COn1c(=O)c(-c2c(Cl)cccc2Cl)cc2cnc(Nc3cc(C(=O)N4CCN(C)CC4)n(C)c3)nc21` [Compound 163, 6-(2,6-Dichlorophenyl)-8-methoxy-2-(5-(4-methylpiperazino)carbonyl-1-methyl-pyrrol-3-yl)-amino-pyrido[2,3-d]pyrimidin-7-one]: the half-inhibitory concentration (IC50) with HT-29 tumor cells is less than 1000 nM; at B-Raf delta1-415 it was less than 500 nM.

With `COn1c(=O)c(-c2c(Cl)cccc2Cl)cc2cnc(Nc3ccc(OCCN4CCCC4)cc3)nc21` [Compound 91, 6-(2,6-Dichlorophenyl)-8-methoxy-2-(4-(2-pyrrolidinoethyl)oxyphenyl) amino-pyrido[2,3-d]pyrimidin-7-one], the results for the half-inhibitory concentration (IC50) with HT-29 tumor cells and on B-Raf delta1-415 were less than 1000 nM and less than 500 nM, respectively.

`O=c1c(-c2c(F)cccc2Cl)cc2cnc(Nc3ccc(N4CCOCC4)cc3)nc2n1OCC1CCCC1` [Compound 173]: the IC50 with HT-29 tumor cells was less than 1000 nM; on B-Raf delta1-415, less than 500 nM.

Take `COn1c(=O)c(-c2c(Cl)cccc2Cl)cc2cnc(Nc3ccc(CNCCO)cc3)nc21` [Compound 178, 2-(4-(2-hydroxyethylamino)methyl-phenyl)-amino-6-(2,6-dichlorophenyl)-8-methoxy-pyrido[2,3-d]pyrimidin-7-one]: the half-inhibitory concentration (IC50) in the experiment on HT-29 tumor cells was less than 1000 nM; on B-Raf delta1-415, less than 500 nM.

Consider `COn1c(=O)c(-c2c(Cl)cccc2Cl)cc2cnc(Nc3ccc(C)cc3)nc21` [Compound 150, 6-(2,6-Dichlorophenyl)-2-(4-methylphenyl)-amino-8-methoxy-pyrido[2,3-d]pyrimidin-7-one], for which the 50% inhibitory concentration (IC50) was less than 10000 nM with HT-29 tumor cells and greater than 1000 nM on B-Raf delta1-415.

Take `O=c1c(-c2c(F)cccc2Cl)cc2cnc(Nc3ccc(N4CCOCC4)cc3)nc2n1OC[C@H](O)CO` [Compound 152]: the IC50 in the experiment with HT-29 tumor cells is less than 1000 nM; at B-Raf delta1-415, less than 100 nM.

In the case of `COCCN1CCN(C(=O)c2cc(Nc3ncc4cc(-c5c(Cl)cccc5Cl)c(=O)n(OC)c4n3)cn2C)CC1` [Compound 188, 6-(2,6-Dichlorophenyl)-8-methoxy-2-(5-(4-(2-methoxy)ethyl)piperazino-carbonyl-1-methyl-pyrrol-3-yl)-amino-pyrido[2,3-d]pyrimidin-7-one], the 50% inhibitory concentration (IC50) is less than 1000 nM with HT-29 tumor cells and less than 500 nM at B-Raf delta1-415.

For `COCCOn1c(=O)c(-c2c(F)cccc2Cl)cc2cnc(Nc3ccc(N4CCOCC4)cc3)nc21` [Compound 121], the results for the IC50 with HT-29 tumor cells and on B-Raf delta1-415 were less than 1000 nM and less than 100 nM, respectively.

As for `COn1c(=O)c(-c2c(Cl)cccc2Cl)cc2cnc(Nc3ccccc3)nc21` [Compound 174, 6-(2,6-Dichlorophenyl)-8-methoxy-2-phenylamino-pyrido[2,3-d]pyrimidin-7-one], the IC50 in the experiment on HT-29 tumor cells and at B-Raf delta1-415 was less than 1000 nM throughout.

On to `CN1CC[C@H](COn2c(=O)c(-c3c(F)cccc3Cl)cc3cnc(Nc4ccc(N5CCOCC5)cc4)nc32)C1` [Compound 212, 6-(2-Chloro-6-fluorophenyl)-8-(3-(S)-1-methyl-pyrrolidin-3-yl)methoxy-2-(4-morpholinophenyl)-amino-pyrido[2,3-d]pyrimidin-7-one], for which the IC50 was less than 1000 nM with HT-29 tumor cells and less than 100 nM at B-Raf delta1-415.

As for `COn1c(=O)c(-c2c(Cl)cccc2Cl)cc2cnc(NCc3ccncc3)nc21` [Compound 147, 6-(2,6-Dichlorophenyl)-8-methoxy-2-pyrid-4-ylmethylamino-pyrido[2,3-d]pyrimidin-7-one], the IC50 with HT-29 tumor cells was less than 10000 nM; on B-Raf delta1-415, less than 500 nM.

Regarding `COn1c(=O)c(-c2c(Cl)cccc2Cl)cc2cnc(Nc3cc(C(=O)NCCO)n(C)c3)nc21` [Compound 82, 6-(2,6-Dichlorophenyl)-2-(5-(2-hydroxyethyl)aminocarbonyl-1-methyl-pyrrol-3-yl)-amino-8-methoxy-pyrido[2,3-d]pyrimidin-7-one], the results for the IC50 in the experiment on HT-29 tumor cells and on B-Raf delta1-415 were less than 1000 nM and less than 500 nM, respectively.

As to `COn1c(=O)c(-c2c(Cl)cccc2Cl)cc2cnc(Nc3ccncn3)nc21` [Compound 135, 6-(2,6-Dichlorophenyl)-8-methoxy-2-(pyrimidin-4-yl)-amino-pyrido[2,3-d]pyrimidin-7-one], the IC50 was less than 10000 nM with HT-29 tumor cells and less than 500 nM on B-Raf delta1-415.

Regarding `COn1c(=O)c(-c2c(Cl)cccc2Cl)cc2cnc(Nc3ccc(/C=N/O)cc3)nc21` [Compound 210, 2-(4-(hydroximino)methylphenyl)-amino-6-(2,6-dichlorophenyl)-8-methoxy-pyrido[2,3-d]pyrimidin-7-one], the IC50 in the experiment with HT-29 tumor cells was less than 1000 nM; at B-Raf delta1-415 it was less than 500 nM.

For the compound `COn1c(=O)c(-c2c(Cl)cccc2Cl)cc2cnc(Nc3csc(C(=O)N4CCN(C)CC4)c3)nc21` [Compound 142, 6-(2,6-Dichlorophenyl)-8-methoxy-2-(5-(4-methylpiperazino)carbonyl-thiophen-3-yl)-amino-pyrido[2,3-d]pyrimidin-7-one], the results for the IC50 with HT-29 tumor cells and at B-Raf delta1-415 were less than 1000 nM and less than 100 nM, respectively.

For `COn1c(=O)c(-c2c(Cl)cccc2Cl)cc2cnc(Nc3cc(C(=O)N(C)CCOC(=O)c4ccccc4)n(C)c3)nc21` [Compound 141], the results for the IC50 in the experiment on HT-29 tumor cells and on B-Raf delta1-415 were less than 1000 nM and less than 500 nM, respectively.

In the case of `CO/N=C/c1ccc(Nc2ncc3cc(-c4c(Cl)cccc4Cl)c(=O)n(OC)c3n2)cc1` [Compound 209, 2-(4-(methoximino)methylphenyl)-amino-6-(2,6-dichlorophenyl)-8-methoxy-pyrido[2,3-d]pyrimidin-7-one], the IC50 with HT-29 tumor cells and on B-Raf delta1-415 was less than 1000 nM throughout.

Take `COn1c(=O)c(-c2c(F)cccc2Cl)cc2cnc(Nc3ccc(N4CCN(C(C)C)CC4)cc3)nc21` [Compound 203, 6-(2-Chloro-6-fluorophenyl)-8-methoxy-2-(4-(4-(1-methylethyl)piperazino)phenyl)-amino-pyrido[2,3-d]pyrimidin-7-one]: the IC50 in the experiment on HT-29 tumor cells was less than 1000 nM; on B-Raf delta1-415 it was less than 100 nM.

`COn1c(=O)c(-c2c(Cl)cccc2Cl)cc2cnc(Nc3ccc(CNS(C)(=O)=O)cc3)nc21` [Compound 120, 6-(2,6-Dichlorophenyl)-8-methoxy-2-(4-methylsulfonylaminomethyl-phenyl)-amino-pyrido[2,3-d]pyrimidin-7-one]: the 50% inhibitory concentration (IC50) in the experiment on HT-29 tumor cells is less than 1000 nM; on B-Raf delta1-415 it was less than 100 nM.

Take `COn1c(=O)c(-c2c(F)cccc2Cl)cc2cnc(Nc3ccc(N4CCN(S(C)(=O)=O)CC4)cc3)nc21` [Compound 223, 6-(2-Chloro-6-fluorophenyl)-8-methoxy-2-(4-(4-methylsulfonylpiperazino)phenyl)-amino-pyrido[2,3-d]pyrimidin-7-one]: the half-maximal inhibitory concentration (IC50) was less than 1000 nM with HT-29 tumor cells and less than 100 nM on B-Raf delta1-415.

As for `COn1c(=O)c(-c2c(F)cccc2Cl)cc2cnc(Nc3cc(C(=O)N4CCOCC4)n(C)c3)nc21` [Compound 197, 6-(2-Chloro-6-fluorophenyl)-8-methoxy-2-(5-morpholinocarbonyl-1-methyl-pyrrol-3-yl)-amino-pyrido[2,3-d]pyrimidin-7-one], the half-inhibitory concentration (IC50) was less than 1000 nM in the experiment with HT-29 tumor cells and less than 500 nM on B-Raf delta1-415.

As for `O=c1c(-c2c(F)cccc2Cl)cc2cnc(Nc3ccc(N4CCOCC4)cc3)nc2n1OCC1CCC1` [Compound 172], the IC50 in the experiment with HT-29 tumor cells is less than 1000 nM; on B-Raf delta1-415 it was less than 500 nM.

As to `COn1c(=O)c(-c2c(Cl)cccc2Cl)cc2cnc(Nc3ccc(NS(C)(=O)=O)cc3)nc21` [Compound 111, 6-(2,6-Dichlorophenyl)-8-methoxy-2-(4-methylsulfonylaminophenyl)-amino-pyrido[2,3-d]pyrimidin-7-one], the IC50 with HT-29 tumor cells is less than 1000 nM; on B-Raf delta1-415, less than 100 nM.

Consider `COn1c(=O)c(-c2c(Cl)cccc2Cl)cc2cnc(Nc3cccc(S(C)(=N)=O)c3)nc21` (stereo not drawn) [Compound 161, 6-(2,6-Dichlorophenyl)-8-methoxy-2-(3-methyliminosulfonylphenyl)-amino-pyrido[2,3-d]pyrimidin-7-one], for which the IC50 in the experiment on HT-29 tumor cells was less than 1000 nM; at B-Raf delta1-415, less than 100 nM.

With `COn1c(=O)c(-c2c(Cl)cccc2Cl)cc2cnc(Nc3ccc(N4CCCN(C)CC4)cc3)nc21` [Compound 221, 6-(2,6-Dichlorophenyl)-8-methoxy-2-(4-(4-methyl-1,4-diazacycloheptyl)phenyl-)-amino-pyrido[2,3-d]pyrimidin-7-one], the IC50 with HT-29 tumor cells is less than 1000 nM; on B-Raf delta1-415, less than 100 nM.

Regarding `COn1c(=O)c(-c2c(Cl)cccc2Cl)cc2cnc(Nc3cc(C(=O)NC[C@H](O)CO)n(C)c3)nc21` [Compound 118, 6-(2,6-Dichlorophenyl)-2-(5-(2-(S)-2,3-dihydroxyethylamino)carbonyl-1-methyl-pyrrol-3-yl)-amino-8-methoxy-pyrido[2,3-d]pyrimidin-7-one], the IC50 with HT-29 tumor cells is less than 10000 nM; at B-Raf delta1-415 it was less than 100 nM.

As for `COn1c(=O)c(-c2c(Cl)cccc2Cl)cc2cnc(Nc3ccc(OCCO)cc3)nc21` [Compound 89, 6-(2,6-Dichlorophenyl)-2-(4-(2-hydroxyethyl)oxyphenyl) amino-8-methoxy-pyrido[2,3-d]pyrimidin-7-one], the figures for the concentration for half-maximal inhibition (IC50) with HT-29 tumor cells and on B-Raf delta1-415 were less than 1000 nM and less than 100 nM, respectively.

In the case of `COn1c(=O)c(-c2c(F)cccc2Cl)cc2cnc(Nc3cc(C(=O)N(C)CCOC(=O)c4cccnc4)n(C)c3)nc21` [Compound 220], the IC50 in the experiment with HT-29 tumor cells is less than 1000 nM; on B-Raf delta1-415, less than 500 nM.

As for `COCCOn1c(=O)c(-c2c(Cl)cccc2Cl)cc2cnc(Nc3ccc(N4CCNCC4)cc3)nc21` [Compound 195, 6-(2,6-Dichlorophenyl)-8-(2-methoxyethyl)oxy-2-(4-piperazinophenyl)-amino-pyrido[2,3-d]pyrimidin-7-one], the results for the IC50 in the experiment with HT-29 tumor cells and on B-Raf delta1-415 were less than 1000 nM and less than 500 nM, respectively.

As to `COn1c(=O)c(-c2c(Cl)cccc2Cl)cc2cnc(Nc3ccc(CC#N)cc3)nc21` [Compound 97, 2-(4-cyanomethylphenyl)-amino-6-(2,6-dichlorophenyl)-8-methoxy-pyrido[2,3-d]pyrimidin-7-one], the IC50 with HT-29 tumor cells is less than 1000 nM; on B-Raf delta1-415, less than 100 nM.

By IC50 is commonly meant the concentration needed to halve the response being measured.
